Patent US8906344B2, “F-18 radiolabeled compounds for diagnosing and monitoring kidney function” (Kasina Laila Innova Pharmaceuticals Private Limited, priority 2012, dated 2014)
Where two headings read alike, the source gives them in different places.

Columns and labels:
[1] = Limited organ bio-distribution in mice; format: in vivo, Female Swiss Albino mice; conditions: for Kidney (% ID) / Small Intestine (% ID) / Urine (% ID) / Liver (% ID): n=4
Procedure: Female Swiss Albino mice were randomized (4 animals per time-point) according to body weight on the day prior to the experimental date. Some of the selected compounds of formula (I) are evaluated for a limited bio-distribution study involving five selected organs of interest such as Blood, Liver, Small Intestines, Kidneys and Urine. Each compound was dissolved in a vehicle comprising of 10% N-methyl-2-pyrrolidone in sterile water to achieve a final strength of 1 mg/mL. The mixture was sonicated for 2 min to yield a clear solution. Compound was administered to mice via tail vein at a dose volume of 2 mL/kg in order to obtain a final dose of 2 mg/kg. […] Blood was collected from the retro-orbital plexus in K2-EDTA containing tubes, centrifuged, plasma harvested and stored at −80° C. until further analysis. Liver, kidneys (right and left), and small intestine were harvested, weighted, and stored at −80° C. The small intestine was flushed with normal saline prior to storage. Urine was collected directly from the bladder and stored at −80° C.
Liver, kidneys, and small intestine were homogenized in water at 20% w/v. The respective homogenates were mixed thoroughly and stored at −80° C. until further processing. An aliquot of 100 μL of plasma/tissue homogenate was transferred to a 1.5 mL micro centrifuge tube. Twenty five microliters of compound (5 μg/mL), hundred microliters of 1% formic acid and 750 μL of tert-butyl methyl ether were added and sample was vortexed for 3 min. After centrifugation of the sample at 12,000 rpm at 4° C. for 5 min, supernatant was removed and evaporated under nitrogen stream at 40° C. for an additional 10 min (nitrogen evaporator, Caliper Instruments USA). The residue was reconstituted with 125 μL of solution (acetonitrile:water 1:1) and 10 μL was injected into the chromatographic system. On similar lines, an aliquot of 50 μL of urine was transferred to a 1.5 mL micro centrifuge tube. One hundred and fifty microliters of compound (5 μg/mL), was added and sample was vortexed for 3 min. After centrifugation of the sample at 12,000 rpm at 4° C. for 5 min, supernatant was removed and 10 μL was subjected to LC-MS/MS (Thermo Quantum Ultra) for the analysis.
Analyte concentrations were determined by evaluating the peak area ratio of drug to internal standard against a standard curve. The standard curve was prepared by plotting the relationship between peak area ratio of analyte to internal standard against concentration of standard CC samples by using linear regression y=ax+b and putting the 1/x^2 as weighting factor.
Data were expressed as ng/g for liver, kidneys, and small intestine. Percent compound in tissues was calculated based on the absolute dose administered (mg/kg). Plasma concentrations as a percent of administered dose were extrapolated assuming a total blood volume of 6% body weight and a 60% yield (plasma from blood). Compound concentrations in urine were expressed as μg per total volume collected.

[2] = Plasma clearance in rats, single injection clearance method; conditions: for Plasma clearance: normal rats; for Clearance: rats, 2 mg/kg i.v. bolus tail vein, n=3, LC-MS/MS, noncompartmental
Procedure: The experiment for each compound was performed in isoflurane-anesthetized male SD rats (body weight 180-260 gm; n=3). Solution formulation of each compound was prepared in sterile water for injection with strength of 1 mg/mL. All solution formulations were prepared freshly prior to dosing. The dose volume for i.v bolus injection was 2 mL/kg. Three rats for each compound were administered intravenously (i.v.) bolus injection in tail vein at 2 mg/kg body weight. Blood samples were obtained at pre-dose (0 hr), 0.08, 0.17, 0.25, 0.5, 0.75, 1 and 2 hr post dosing. The blood samples (˜120 μL) were taken from the retro-orbital plexus into labelled micro centrifuge tubes, containing 10 μL of 2% w/v K2EDTA solution, as an anticoagulant. […] Bioanalysis of rat plasma samples were analysed with developed method for each analyte using LC-MS/MS (Waters, Xevo TQ-S). The pharmacokinetic parameters such as area under the curve (AUC), elimination half-life (T1/2), volume of distribution (Vss) and clearance (CL) were estimated using a noncompartmental model in Phoenix WinNonlin software, version 6.3.

[3] = literature, cited from earlier work; for Plasma clearance: known renal diagnostic agents
[4] = 15 min after injection, 2 mg/kg tail vein
[5] = 15 min after injection, 2 mg/kg tail vein, n=4, plasma extrapolated assuming blood volume 6% body weight, 60% yield
[6] = 60 min after injection, n=4, plasma extrapolated to blood

| Compound | Kidney (% ID) [1, 4] [% ID] | Small Intestine (% ID) [1, 4] [% ID] | Urine (% ID) [1, 4] [% ID] | Kidney (% ID) ([1]; 60 min after injection) | Small Intestine (% ID) ([1]; 60 min after injection) | retention in liver, small intestine and kidney (in words) ([1]; 15 min after injection) | Liver (% ID) [1, 4] [% ID] | Blood (% ID) [1, 5] [% ID] | Liver (% ID) ([1]; 60 min after injection) | Blood (% ID) [1, 6] [% ID] | Plasma clearance [2] [ml/min/100 g] | Clearance [2] [mL/min/100 g] | Plasma clearance [3] [ml/min/100 g] | clearance as percent of the clearance of 131I-OIH [3] |
| --- | --- | --- | --- | --- | --- | --- | --- | --- | --- | --- | --- | --- | --- | --- |
| Nc1ccc(C(=O)NCC(=O)O)c([18F])c1 [Compound 1, 2-(4-amino-2-(18)fluorobenzamido)acetic acid] | 0.51 ± 0.45 | 0.07 ± 0.08 | 87.76 ± 6.03 | 0.00 ± 0.00 | 0.00 ± 0.00 |  |  |  |  |  |  |  |  |  |
| CC(=O)Nc1ccc(C(=O)NCC(=O)O)c([18F])c1 [Compound 2, 2-(4-Acetamido-2-(18)fluorobenzamido)acetic acid] | 1.19 ± 0.53 | 0.09 ± 0.04 | 84.42 ± 3.44 | 0.05 ± 0.09 | 0.02 ± 0.02 |  |  |  |  |  |  |  |  |  |
| Nc1cc(C(=O)NCC(=O)O)ccc1[18F] [Compound 3, 2-(3-Amino-4-(18)fluorobenzamido)acetic acid] | 0.13 ± 0.01 | 0.04 ± 0.02 | 72.73 ± 1.91 | 0.00 ± 0.00 | 0.00 ± 0.00 | minimum retention | 0.08 ± 0.04 | 0.83 ± 0.02 | 0.00 ± 0.00 | 0.02 ± 0.02 | 2.78±0.19 | 2.78 ± 0.19 |  |  |
| Nc1ccc(C(=O)NCC(=O)O)cc1[19F] [Compound 6, 2-(4-Amino-3-(18)fluorobenzamido)acetic acid] | 0.47 ± 0.20 | 0.11 ± 0.08 | 78.21 ± 4.79 | 0.01 ± 0.01 | 0.01 ± 0.01 | minimum retention | 0.08 ± 0.02 | 0.68 ± 0.38 | 0.02 ± 0.02 | 0.02 ± 0.01 | 3.48±0.63 | 3.48 ± 0.63 |  |  |
| Nc1cccc([18F])c1C(=O)NCC(=O)O [Compound 8, 2-(2-Amino-6-(18)fluorobenzamido)acetic acid] | 0.91 ± 0.40 | 0.10 ± 0.09 | 87.51 ± 4.14 | 0.02 ± 0.03 | 0.01 ± 0.01 |  |  |  |  |  |  | 1.55 ± 0.10 |  |  |
| C[C@H](NC(=O)c1ccc(N)cc1[18F])C(=O)O [Compound 10, (S)-2-(4-Amino-2-(18)fluorobenzamido)propanoic acid] | 0.09 ± 0.04 | 0.01 ± 0.01 | 83.59 ± 8.82 | 0.00 ± 0.00 | 0.00 ± 0.00 | minimum retention | 0.21 ± 0.05 | 0.50 ± 0.27 | 0.05 ± 0.07 | 0.01 ± 0.00 | 3.25±0.13 | 3.25 ± 0.13 |  |  |
| C[C@@H](NC(=O)c1ccc(N)cc1[18F])C(=O)O [Compound 11, (R)-2-(4-Amino-2-(18)fluorobenzamido)propanoic acid] | 0.06 ± 0.02 | 0.09 ± 0.05 | 82.31 ± 9.60 | 0.01 ± 0.02 | 0.00 ± 0.00 | minimum retention | 0.02 ± 0.03 | 0.94 ± 0.53 | 0.00 ± 0.00 | 0.12 ± 0.17 | 3.36±0.41 | 3.36 ± 0.41 |  |  |
| O=C(O)CNC(=O)c1ccccc1[131I] [Compound I-131, I-131-ortho iodohippuran] |  |  |  |  |  |  |  |  |  |  |  |  | 2.17 |  |
| Tc-99m MercaptoAcetylGlycylGlycylGlycine [Tc-99m MAG-3] |  |  |  |  |  |  |  |  |  |  |  |  | 2.84 | 50%-60% |
